Data published in US11160881B2, “Dendrimer compositions for use in angiography” (The Johns Hopkins University, priority 2017, dated 2021).

Tested on: leaky retinal blood vessels
Experiment: Fundus fluorescence angiogram imaging in lipid injected rat CNV model
Type: in vivo, brown Norway rats
Details: 5 mg/kg, imaging on day 21 after lipid injection, 488 filter
Protocol: White arrows indicate precise location of retinal leakage identified by D-FITC nanoparticles.
Dendrimer fluorescent probes were investigated for their application in longitudinal imaging of retinal inflammation and oxidative stress. […] Lipid was injected in brown Norway rats via subretinal injection at day 0 and the fluorescence angiogram imaging was performed on day 21. The rats were anesthetized and administered with sodium fluorescein or D-FITC (5 mg/kg) and the rats were imaged under Micron-3 fundus microscope using a 488 filter at different time points (10 mins, 1 hr and 4 hrs). […] Free FITC perfuses and clears from the retina quickly within 1 hr. At early time points (10 mins) post injection free FITC leaked from the retinal blood vessels (FIG. 2, white arrows) in the areas of inflammation causing fluorescence background thereby making in unclear the exact location of the leaky blood vessels.

O=C1OC2(c3ccc(O)cc3Oc3cc(O)ccc32)c2ccccc21 [free FITC, sodium fluorescein]
time to clearance from the retina: ≤ 1 h
